According to patent US20120034613A1, “Apparatus and Method for Testing Relationships Between Gene Expression and Physical Appearance of Skin” (NSE Products, Inc., priority 2010, published 2012):

Tested on: facial skin
Experiment: Clinical investigator grading of facial attributes, 9-point ordinal scale, 12 week clinical study
Format: in vivo, human
Conditions: for Cheek Wrinkles clinical grading Mean: Baseline mean 2.41; for Under-Eye Area Wrinkles clinical grading Mean: Baseline mean 3.19; for Crows Feet Wrinkles clinical grading Mean: Baseline mean 3.29; for Face Tactile Roughness/Smoothness clinical grading Mean: Baseline mean 3.48; for Face Fine Lines (Overall) clinical grading Mean: Baseline mean 4.29; for Face Pore Size clinical grading Mean: Baseline mean 4.41; for Face Global Firmness Appearance clinical grading Mean: Baseline mean 5.03; for Face Mottled Pigmentation clinical grading Mean / Face Uneven Skin Tone clinical grading Mean: Baseline mean 5.05; for Face Jawline Contour clinical grading Mean: Baseline mean 5.16; for Face Overall Appearance clinical grading Mean: Baseline mean 5.47; for Face Radiance clinical grading Mean: Baseline mean 5.81
Description: At baseline (Visit 1), each prospective subject completed an Eligibility and Health Questionnaire, and read and signed a Confidentially Agreement, a Photography Release Form and an Informed Consent Agreement. Each subject was explained the type of study, the detailed procedures and materials to be tested, along with any known adverse reactions that may result from participation. Subjects arrived at the clinic having refrained from applying any moisturizer to the face at least 3 to 5 days prior to visit and having cleansed the face to remove all makeup at least 30 minutes prior to visit. Subjects were consequently not allowed to use any other topical cosmeceuticals, topical retinoid, or moisturizers during the 12 week duration of the study. Subjects used the study product on their face twice daily for 12 weeks. Ordinal grading on a 9-point scale (0=none, 1-3=mild, 4-6=moderate, 7-9=severe) of facial fine lines, mottled pigmentation, uneven skin tone, tactile roughness, global firmness appearance, jaw-line contour, radiance and overall appearance was performed by investigator at baseline, week 1, week 4, week 8 and week 12. Digital high-resolution photography was performed on the front, right and left sides of the face. Each image was taken while the subject's eyes were open. Each subject's baseline photograph was compared to each post-baseline photograph to ensure consistent placement and lighting. Color standards were imaged prior to each study visit. All clinical and corneometer measurements and evaluations were taken at baseline, week 1 (visit 2), week 4 (visit 3), week 8 (visit 4) and week 12 (visit 5). Ultrasound and cutometer measurements and evaluations were taken at baseline, week 4 (visit 3), week 8 (visit 4) and week 12 (visit 5). Completed patient's diaries were reviewed for compliance at each visit. Mean clinical grading and instrumentation scores at each visit were statistically compared to baseline scores using paired t-test. Changes from baseline were considered significant at the p≦0.05 level. Mean percent change from baseline and incidence of positive responders were calculated for all attributes. Comparisons, based on the average from baseline, were made between the test materials using analysis of variance (ANOVA).

Compound: OCc1ccccc1O[C@@H]1O[C@H](CO)[C@@H](O)[C@H](O)[C@H]1O [Salicin, 2-(Hydroxymethyl)phenyl β-D-glucospyranoside]
- Cheek Wrinkles clinical grading Mean (Week 1): 2.29
- Under-Eye Area Wrinkles clinical grading Mean (Week 1): 3.07
- Crows Feet Wrinkles clinical grading Mean (Week 1): 3.21
- Face Tactile Roughness/Smoothness clinical grading Mean (Week 1): 2.41
- Face Fine Lines (Overall) clinical grading Mean (Week 1): 4.14
- Face Pore Size clinical grading Mean (Week 1): 4.30
- Face Global Firmness Appearance clinical grading Mean (Week 1): 5.04
- Face Mottled Pigmentation clinical grading Mean (Week 1): 5.05
- Face Uneven Skin Tone clinical grading Mean (Week 1): 5.05
- Face Jawline Contour clinical grading Mean (Week 1): 5.14
- Face Overall Appearance clinical grading Mean (Week 1): 5.21
- Face Radiance clinical grading Mean (Week 1): 5.20
- Cheek Wrinkles clinical grading % Change (Week 1 vs Baseline): (−1.5%)
- Crows Feet Wrinkles clinical grading % Change (Week 1 vs Baseline): (−0.5%)
- Face Fine Lines (Overall) clinical grading % Change (Week 1 vs Baseline): (−3.7%)
- Face Global Firmness Appearance clinical grading % Change (Week 1 vs Baseline): (0.3%)
- Face Jawline Contour clinical grading % Change (Week 1 vs Baseline): (0.0%)
- Face Mottled Pigmentation clinical grading % Change (Week 1 vs Baseline): (−0.7%)
- Face Overall Appearance clinical grading % Change (Week 1 vs Baseline): (−4.2%)
- Face Pore Size clinical grading % Change (Week 1 vs Baseline): (−2.4%)
- Face Radiance clinical grading % Change (Week 1 vs Baseline): (−11.0%)
- Face Tactile Roughness/Smoothness clinical grading % Change (Week 1 vs Baseline): (−30.7%)
- Face Uneven Skin Tone clinical grading % Change (Week 1 vs Baseline): (−0.7%)
- Under-Eye Area Wrinkles clinical grading % Change (Week 1 vs Baseline): (−1.7%)
- Cheek Wrinkles clinical grading Mean (Week 4): 2.26
- Under-Eye Area Wrinkles clinical grading Mean (Week 4): 2.79
- Crows Feet Wrinkles clinical grading Mean (Week 4): 3.00
- Face Tactile Roughness/Smoothness clinical grading Mean (Week 4): 2.02
- Face Fine Lines (Overall) clinical grading Mean (Week 4): 3.76
- Face Pore Size clinical grading Mean (Week 4): 4.05
- Face Global Firmness Appearance clinical grading Mean (Week 4): 4.86
- Face Mottled Pigmentation clinical grading Mean (Week 4): 4.74
- Face Uneven Skin Tone clinical grading Mean (Week 4): 4.74
- Face Jawline Contour clinical grading Mean (Week 4): 5.10
- Face Overall Appearance clinical grading Mean (Week 4): 4.91
- Face Radiance clinical grading Mean (Week 4): 4.90
- Cheek Wrinkles clinical grading % Change (Week 4 vs Baseline): (−6.4%)
- Crows Feet Wrinkles clinical grading % Change (Week 4 vs Baseline): (−8.9%)
- Face Fine Lines (Overall) clinical grading % Change (Week 4 vs Baseline): (−12.4%)
- Face Global Firmness Appearance clinical grading % Change (Week 4 vs Baseline): (−3.4%)
- Face Jawline Contour clinical grading % Change (Week 4 vs Baseline): (−1.0%)
- Face Mottled Pigmentation clinical grading % Change (Week 4 vs Baseline): (−6.1%)
- Face Overall Appearance clinical grading % Change (Week 4 vs Baseline): (−10.0%)
- Face Pore Size clinical grading % Change (Week 4 vs Baseline): (−8.2%)
- Face Radiance clinical grading % Change (Week 4 vs Baseline): (−15.7%)
- Face Tactile Roughness/Smoothness clinical grading % Change (Week 4 vs Baseline): (−42.0%)
- Face Uneven Skin Tone clinical grading % Change (Week 4 vs Baseline): (−6.1%)
- Under-Eye Area Wrinkles clinical grading % Change (Week 4 vs Baseline): (−12.4%)
- Cheek Wrinkles clinical grading Mean (Week 8): 2.12
- Under-Eye Area Wrinkles clinical grading Mean (Week 8): 2.55
- Crows Feet Wrinkles clinical grading Mean (Week 8): 2.71
- Face Tactile Roughness/Smoothness clinical grading Mean (Week 8): 1.43
- Face Fine Lines (Overall) clinical grading Mean (Week 8): 3.47
- Face Pore Size clinical grading Mean (Week 8): 3.86
- Face Global Firmness Appearance clinical grading Mean (Week 8): 4.64
- Face Mottled Pigmentation clinical grading Mean (Week 8): 4.57
- Face Uneven Skin Tone clinical grading Mean (Week 8): 4.57
- Face Jawline Contour clinical grading Mean (Week 8): 4.95
- Face Overall Appearance clinical grading Mean (Week 8): 4.67
- Face Radiance clinical grading Mean (Week 8): 4.72
- Cheek Wrinkles clinical grading % Change (Week 8 vs Baseline): (−12.1%)
- Crows Feet Wrinkles clinical grading % Change (Week 8 vs Baseline): (−17.8%)
- Face Fine Lines (Overall) clinical grading % Change (Week 8 vs Baseline): (−19.2%)
- Face Global Firmness Appearance clinical grading % Change (Week 8 vs Baseline): (−7.8%)
- Face Jawline Contour clinical grading % Change (Week 8 vs Baseline): (−4.0%)
- Face Mottled Pigmentation clinical grading % Change (Week 8 vs Baseline): (−9.5%)
- Face Overall Appearance clinical grading % Change (Week 8 vs Baseline): (−14.5%)
- Face Pore Size clinical grading % Change (Week 8 vs Baseline): (−12.5%)
- Face Radiance clinical grading % Change (Week 8 vs Baseline): (−18.6%)
- Face Tactile Roughness/Smoothness clinical grading % Change (Week 8 vs Baseline): (−58.9%)
- Face Uneven Skin Tone clinical grading % Change (Week 8 vs Baseline): (−9.5%)
- Under-Eye Area Wrinkles clinical grading % Change (Week 8 vs Baseline): (−20.0%)
- Cheek Wrinkles clinical grading Mean (Week 12): 2.02
- Under-Eye Area Wrinkles clinical grading Mean (Week 12): 2.24
- Crows Feet Wrinkles clinical grading Mean (Week 12): 2.48
- Face Tactile Roughness/Smoothness clinical grading Mean (Week 12): 0.98
- Face Fine Lines (Overall) clinical grading Mean (Week 12): 3.10
- Face Pore Size clinical grading Mean (Week 12): 3.71
- Face Global Firmness Appearance clinical grading Mean (Week 12): 4.48
- Face Mottled Pigmentation clinical grading Mean (Week 12): 4.33
- Face Uneven Skin Tone clinical grading Mean (Week 12): 4.34
- Face Jawline Contour clinical grading Mean (Week 12): 4.74
- Face Overall Appearance clinical grading Mean (Week 12): 4.50
- Face Radiance clinical grading Mean (Week 12): 4.59
- Cheek Wrinkles clinical grading % Change (Week 12 vs Baseline): (−16.4%)
- Crows Feet Wrinkles clinical grading % Change (Week 12 vs Baseline): (−24.6%)
- Face Fine Lines (Overall) clinical grading % Change (Week 12 vs Baseline): (−27.7%)
- Face Global Firmness Appearance clinical grading % Change (Week 12 vs Baseline): (−10.9%)
- Face Jawline Contour clinical grading % Change (Week 12 vs Baseline): (−8.0%)
- Face Mottled Pigmentation clinical grading % Change (Week 12 vs Baseline): (−14.3%)
- Face Overall Appearance clinical grading % Change (Week 12 vs Baseline): (−17.6%)
- Face Pore Size clinical grading % Change (Week 12 vs Baseline): (−16.0%)
- Face Radiance clinical grading % Change (Week 12 vs Baseline): (−21.0%)
- Face Tactile Roughness/Smoothness clinical grading % Change (Week 12 vs Baseline): (−71.7%)
- Face Uneven Skin Tone clinical grading % Change (Week 12 vs Baseline): (−13.9%)
- Under-Eye Area Wrinkles clinical grading % Change (Week 12 vs Baseline): (−29.7%)
